Data as given in patent publication US8618143B1, “Selective neuronal nitric oxide synthase inhibitors with azole substituents” (Northwestern University, priority 2010, dated 2013).

How the values were obtained:
[1] = pKa of the free azole ring of the side chain; cited from earlier work
eNOS = eNOS (Bos taurus, UniProt P29473); assay: NOS inhibition assay (literature protocols), endothelial isoform; type: biochemical; settings: for selectivity e/n: ratio KI eNOS / KI nNOS
iNOS = iNOS (Mus musculus, UniProt P29477); assay: NOS inhibition assay (literature protocols), inducible isoform; type: biochemical; settings: for selectivity i/n: ratio KI iNOS / KI nNOS
nNOS = nNOS (Rattus norvegicus, UniProt P29476); assay: NOS inhibition assay (literature protocols), neuronal isoform; type: biochemical; settings: for potency (in words): comment on Table 2
Excerpt: Compounds 3a (not shown, below), 4a, 3c, and 4c were synthesized compounds for purpose of illustration, and 4a, 3c and 4c have been tested using literature protocols. (See, e.g., example 51 of the aforementioned incorporated '790 patent, example 12 of co-pending application Ser. No. 13/250,554 filed Sep. 30, 2011, also incorporated herein by reference in its entirety and, respectively, the references cited therein.) The activities are shown in Table 2.

Row | Compound | approximate ring pKa [1] | Ki (eNOS) [µM] | selectivity e/n (eNOS) | Ki (iNOS) [µM] | selectivity i/n (iNOS) | Ki (nNOS) [µM] | potency (in words) (nNOS)
1 | Cn1cnc(CCN)c1 [Compound 5g] | >7.1 |  |  |  |  |  | 
2 | Cc1cc(N)nc(C[C@H]2CNC[C@H]2OCCNCCc2nccs2)c1 [Compound 4c] |  | 9.81 | 223 | 34.4 | 782 | 0.044 | moderate potency
3 | NCCc1c[nH]cn1 [Compound 5a] | 7.1 |  |  |  |  |  | 
4 | NCCn1ccnc1 [Compound 5e] | >7.1 |  |  |  |  |  | 
5 | NCCc1nccs1 [Compound 5c] | 2.5 |  |  |  |  |  | 
6 | Cn1cncc1CCN [Compound 5f] | >7.1 |  |  |  |  |  | 
7 | Cc1cc(N)nc(C[C@H]2CNC[C@H]2OCCNCCc2c[nH]cn2)c1 [Compound 4a] |  | 4.23 | 3.58 | 15 | 12.7 | 1.18 | moderate potency
8 | Cc1cc(N)nc(C[C@@H]2CNC[C@@H]2OCCNCCc2nccs2)c1 [Compound 3c] |  | 0.058 | 0.081 | 23.1 | 32.3 | 0.716 | highly potent
